Assay results reported in BindingDB's records for doi:10.1016/j.chembiol.2008.07.015 (Duke University Medical Center, 2008).

Key:
Experiment in all cases: BP Incorporation Assay
Details in all cases: 37 °C
[1] = target: Protein-glutamine gamma-glutamyltransferase 2/Receptor protein-tyrosine kinase (Homo sapiens, UniProt P21980+Q504U8)
Description: (§1) In order to eliminated fluorescence interference, chemicals were subjected to a secondary screening using colorimetric BP incorporation assay. TGase/TGMS activity was determined by quantifying the incorporation of BP into N,N'-dimethylcasein in a microtiter plate.

[2] = target: T1, Protein-glutamine gamma-glutamyltransferase 2 (Homo sapiens, UniProt P21980)
T1 sequence (P21980 whole entry): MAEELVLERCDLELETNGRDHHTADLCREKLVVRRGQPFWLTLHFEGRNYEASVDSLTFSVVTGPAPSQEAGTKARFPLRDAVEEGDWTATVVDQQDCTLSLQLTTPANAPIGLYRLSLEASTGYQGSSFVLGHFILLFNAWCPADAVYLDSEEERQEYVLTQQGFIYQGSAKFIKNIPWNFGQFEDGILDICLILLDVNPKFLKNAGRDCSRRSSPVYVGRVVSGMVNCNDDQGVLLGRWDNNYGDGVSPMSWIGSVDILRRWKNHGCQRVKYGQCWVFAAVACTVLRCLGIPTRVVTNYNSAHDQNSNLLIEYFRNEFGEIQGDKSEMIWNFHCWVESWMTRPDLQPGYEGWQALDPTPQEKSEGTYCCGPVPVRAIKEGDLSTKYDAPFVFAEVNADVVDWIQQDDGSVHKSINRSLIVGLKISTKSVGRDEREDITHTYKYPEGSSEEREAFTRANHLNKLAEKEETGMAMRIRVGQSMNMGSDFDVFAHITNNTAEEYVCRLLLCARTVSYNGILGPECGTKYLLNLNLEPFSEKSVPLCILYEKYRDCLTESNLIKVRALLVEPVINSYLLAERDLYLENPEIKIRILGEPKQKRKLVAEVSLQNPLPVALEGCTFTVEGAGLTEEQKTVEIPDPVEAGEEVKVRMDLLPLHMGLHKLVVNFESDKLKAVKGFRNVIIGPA
Description: as §1

[3] = target: Protein kinase C alpha type/glutamine gamma-glutamyltransferase 2 (Homo sapiens, UniProt P17252+P21980)
Description: as §1

Chain of Protein-glutamine gamma-glutamyltransferase 2/Receptor protein-tyrosine kinase (Q504U8 whole entry, one chain of several): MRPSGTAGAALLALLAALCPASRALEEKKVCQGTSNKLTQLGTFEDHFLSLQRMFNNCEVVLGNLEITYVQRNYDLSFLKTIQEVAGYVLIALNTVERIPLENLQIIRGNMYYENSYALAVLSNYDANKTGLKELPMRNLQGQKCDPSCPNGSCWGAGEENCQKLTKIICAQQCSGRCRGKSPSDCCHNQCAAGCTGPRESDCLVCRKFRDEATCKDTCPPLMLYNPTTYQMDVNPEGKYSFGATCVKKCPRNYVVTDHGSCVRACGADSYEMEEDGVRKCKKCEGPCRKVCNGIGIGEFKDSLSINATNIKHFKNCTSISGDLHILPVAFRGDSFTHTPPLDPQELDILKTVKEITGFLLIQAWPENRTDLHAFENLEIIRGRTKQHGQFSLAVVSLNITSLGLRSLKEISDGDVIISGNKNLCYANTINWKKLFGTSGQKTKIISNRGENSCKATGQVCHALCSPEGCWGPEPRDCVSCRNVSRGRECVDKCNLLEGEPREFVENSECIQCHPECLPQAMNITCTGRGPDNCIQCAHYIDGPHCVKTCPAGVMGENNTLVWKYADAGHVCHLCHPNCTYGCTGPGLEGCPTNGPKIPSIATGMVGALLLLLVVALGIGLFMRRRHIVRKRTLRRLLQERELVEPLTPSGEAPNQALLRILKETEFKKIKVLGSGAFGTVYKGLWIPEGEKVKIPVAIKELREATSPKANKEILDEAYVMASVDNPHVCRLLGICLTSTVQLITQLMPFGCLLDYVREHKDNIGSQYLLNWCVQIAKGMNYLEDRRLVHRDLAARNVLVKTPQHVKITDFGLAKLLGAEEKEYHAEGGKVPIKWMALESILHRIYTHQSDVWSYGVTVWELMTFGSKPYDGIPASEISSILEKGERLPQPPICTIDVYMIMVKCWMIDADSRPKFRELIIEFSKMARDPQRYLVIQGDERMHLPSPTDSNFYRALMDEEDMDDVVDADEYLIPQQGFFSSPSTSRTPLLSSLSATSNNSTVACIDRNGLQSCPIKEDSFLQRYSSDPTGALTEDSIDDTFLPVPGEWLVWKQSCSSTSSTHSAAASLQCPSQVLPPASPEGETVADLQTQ

| Structure (SMILES) | IC50 [3] | other results |
| --- | --- | --- |
| N#C/C(=C\c1ccc(O)c(O)c1)C(N)=S [alpha-Cyano-(3,4-dihydroxy)thiocinnamide] |  | IC50 [1]: 3 µM |
| CC1=CC(=O)c2ccccc2C1=O [Vitamin K3] |  | IC50 [2]: 2.2 µM |
| O=C1Nc2ccc(I)cc2/C1=C/c1cc(Br)c(O)c(Br)c1 [G6416 (GW5074)] | 15 µM |  |
| CC(=O)c1c(O)c(C)c(O)c(Cc2c(O)c3c(c(C(=O)C=Cc4ccccc4)c2O)OC(C)(C)C=C3)c1O [(E)-1-(6-(3-acetyl-2,4,6-trihydroxy-5-methylbenzyl)-5,7-dihydroxy-2,2-dimethyl-2H-chromen-8-yl)-3-phenylprop-2-en-1-one] | 20 µM |  |
